Reference: patent publication US20060106014A1, “Methods for treating diabetes” (priority 2004, published 2006)
pIC50: −log10 of the molar value. Like-named read-outs stand apart in the source and are kept apart here.

Assays:
[1] = biological target: T1, 5-lipoxygenase (Homo sapiens, UniProt P09917); settings: background; cited from earlier work
T1 sequence (P09917 1-674): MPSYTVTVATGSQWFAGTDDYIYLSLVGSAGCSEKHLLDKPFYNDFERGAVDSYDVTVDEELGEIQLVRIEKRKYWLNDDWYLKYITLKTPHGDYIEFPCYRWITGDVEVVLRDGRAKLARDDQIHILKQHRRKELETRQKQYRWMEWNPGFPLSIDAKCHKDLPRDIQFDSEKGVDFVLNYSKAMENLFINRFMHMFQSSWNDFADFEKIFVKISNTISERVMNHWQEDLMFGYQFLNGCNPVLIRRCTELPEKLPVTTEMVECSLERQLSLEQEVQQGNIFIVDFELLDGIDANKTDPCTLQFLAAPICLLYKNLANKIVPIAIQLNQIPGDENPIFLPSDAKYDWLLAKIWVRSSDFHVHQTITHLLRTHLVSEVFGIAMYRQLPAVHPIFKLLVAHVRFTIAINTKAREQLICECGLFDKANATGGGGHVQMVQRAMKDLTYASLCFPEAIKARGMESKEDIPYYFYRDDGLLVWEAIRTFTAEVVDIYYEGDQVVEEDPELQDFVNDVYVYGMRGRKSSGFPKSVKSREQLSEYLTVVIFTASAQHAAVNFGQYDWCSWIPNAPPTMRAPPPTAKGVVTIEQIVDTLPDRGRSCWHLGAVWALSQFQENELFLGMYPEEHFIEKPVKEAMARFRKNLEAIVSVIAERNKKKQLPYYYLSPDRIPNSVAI

[2] = biological target: T1, 5-lipoxygenase; experiment: 5-Lipoxygenase Enzyme Assay (colorimetric, ferric oxidation of xylenol orange); type: biochemical; set-up: purchased Cayman 60402
Method: This procedure was used for measuring the enzymatic activity of human recombinant 5-lipoxygenase using a colorimetric method based on the ferric oxidation of xylenol orange.
(§1) The test compound and/or vehicle was added to 0.5 μL 5-lipoxygenase in 50 mM Tris-HCl buffer, pH 7.4. The reaction was initiated by addition of 70 μM arachidonic acid in Tris-HCl buffer, pH 7.4, and terminated after a 10 minute incubation at room temperature by addition of FOX reagent (25 mM sulphuric acid, 100 μM xylenol orange, 100 μM iron (II) sulphate, methanol:water 9:1). The yellow color of acidified xylenol orange was converted to a blue color by the lipid hydroperoxide-mediated oxidation of Fe^2+ ions and the interaction of the resulting Fe^3+ ions with the dye. The complex was allowed to form during a 1 hour incubation at room temperature with shaking. Absorbance of the Fe^3+ complex was then measured at 620 nm using a spectrophotometer. Negative controls contained enzyme during the incubation step but substrate was not added until after the FOX reagent.

[3] = biological target: T2, porcine leukocyte 12/15-lipoxygenase (Sus scrofa, UniProt P16469); experiment: 12/15-Lipoxygenase Enzyme Assay (colorimetric, ferric oxidation of xylenol orange); type: biochemical
T2 construct: purchased Cayman 60300
T2 sequence (P16469 1-663): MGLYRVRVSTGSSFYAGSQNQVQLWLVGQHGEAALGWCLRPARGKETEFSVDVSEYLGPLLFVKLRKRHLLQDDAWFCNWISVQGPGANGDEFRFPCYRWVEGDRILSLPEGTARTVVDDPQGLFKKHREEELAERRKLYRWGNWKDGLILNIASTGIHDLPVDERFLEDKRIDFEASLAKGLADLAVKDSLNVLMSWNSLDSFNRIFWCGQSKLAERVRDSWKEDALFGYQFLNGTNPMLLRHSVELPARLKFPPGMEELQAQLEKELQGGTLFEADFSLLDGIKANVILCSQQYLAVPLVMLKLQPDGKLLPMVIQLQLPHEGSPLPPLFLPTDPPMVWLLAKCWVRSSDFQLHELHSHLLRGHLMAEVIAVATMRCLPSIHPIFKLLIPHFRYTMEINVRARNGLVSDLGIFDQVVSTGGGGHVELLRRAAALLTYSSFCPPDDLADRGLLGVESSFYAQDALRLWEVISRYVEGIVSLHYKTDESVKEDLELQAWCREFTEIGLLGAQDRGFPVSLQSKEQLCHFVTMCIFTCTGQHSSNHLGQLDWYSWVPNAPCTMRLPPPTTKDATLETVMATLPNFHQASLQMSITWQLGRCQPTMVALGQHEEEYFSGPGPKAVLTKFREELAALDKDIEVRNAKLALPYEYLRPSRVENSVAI
Method: This procedure was used for measuring the enzymatic activity of porcine leukocyte 12/15-lipoxygenase using a colorimetric method based on the ferric oxidation of xylenol orange.
as §1, with “vehicle were” for “vehicle was”, “to 1.3” for “to 0.5”, “μL 12/15-lipoxygenase” for “μL 5-lipoxygenase”, “spectrophotometer.” for “spectrophotometer. Negative controls contained enzyme during the incubation step but substrate was not added until after the FOX reagent.”
Negative controls contained enzyme during the incubation step but substrate was not added until after the FOX reagent.

[4] = system: NIDDM male mice (C57BLKS/J-m+/+Lepr db); experiment: Therapeutic study: serum glucose levels in diabetic animals; type: in vivo; settings: i.p. twice daily
Method: In vivo evaluation of the role of dual inhibitor of both 5-LO and 12/15-LO enzymes in the reduction of serum glucose levels and insulin was performed in C57BLKs/J-m+/+Lepr db mice, a non-insulin dependent diabetic mellitus (NIDDM) model, as described in Examples. […] […].
Non-insulin dependent diabetic mellitus (NIDDM) male mice (C57BLKS/J-m+/+Lepr db), weighing 45±5 g (10 weeks of age) and provided by Institute for Animal Reproduction (IAR, Japan), were used.
Groups of 10 non-insulin dependent diabetic mellitus (NIDDM) male mice (C57BLKS/J-m+/+Lepr db), weighing 45±5 g and 10-weeks-old, were used. The animals were housed in Individually Ventilated Cages Racks (IVC Racks) throughout the experiment; all animals were allowed free access to sterilized Lab chow and sterilized distilled water. The test compounds, as well as vehicle (0.5% DMSO/2% Tween 80/0.9% NaCl), were each administered intraperitoneally twice daily (1st at 9:00 A.M. and 2nd at 16:00 P.M.) for a total of 14 consecutive days. Using blood samples collected from the orbital sinus, pre-treatment serum glucose and insulin levels were determined 24 hours prior to the first dosing on day 0. Post-treatment glucose and insulin levels were detected 4 hours after dosing on days 11 and 14. Also, serum glucose and insulin levels were obtained before and 15, 30 and 90 minutes after glucose loading (orally glucose tolerance test (OGTT) 2 g/kg), 4 hours following the dosing on day 11. Serum glucose and Insulin (on days 0, 11 and 14) levels were determined by enzymatic (Mutaratase-GOD) and ELISA (mouse insulin assay kit) methods, respectively. The percentage of post-treatment relative to pre-treatment group values obtained on days 11 and 14 were analyzed using One Way ANOVA followed by Dunnett's test for comparison between vehicle and treated groups. […]
For effect on OGTT, AUC (area under the curve) for the serum glucose at times 0, 15, 30, and 90 minutes after OGTT was plotted for each test compound and its respective vehicle control. […] Body weight and food intake were measured daily through the course of the study.

[5] = read-out: classification as dual inhibitor: 5-LO enzyme assay IC50
[6] = read-out: classification as dual inhibitor: 12/15-LO enzyme assay IC50

Row | pIC50 [2, 5] | pIC50 [3, 6] | SMILES | 5-lipoxygenase inhibition / specificity as reported in the literature [1] | further results
1 |  |  | CC(Cc1ccc(O)c(O)c1)C(C)Cc1ccc(O)c(O)c1 (centres unmarked) [Compound A, Nordihydroguaiaretic acid (NDGA)] | inhibitor | 
2 | > 5.30 | > 5.30 | Cc1c(O)c(C)c2c(c1F)OC(C)(C)CC2 [Compound D, 8-fluoro-2,2,5,7-tetramethylchroman-6-ol] |  | pIC50 ([2]; read-out: in vitro IC50 value in a 5-LO enzyme assay): > 5.30; pIC50 ([3]; read-out: in vitro IC50 value in a 12/15-LO enzyme assay): > 5.30; reduction in baseline elevated blood glucose level in comparison to the vehicle group [4]: 13%
3 | > 5.30 | > 5.30 | Cc1c(O)cc2c(c1C)N(c1ccc(O)cc1)C(C)CC2 (centres unmarked) [Compound E, 1-(4-hydroxyphenyl)-2,7,8-trimethyl-1,2,3,4-tetrahydroquinolin-6-ol] |  | lowering of serum glucose levels compared to respective control (FIG. 2) ([4]; 15 mg/kg, p<0.05): significant lowering
4 |  |  | CC(c1cc2ccccc2s1)N(O)C(N)=O (centres unmarked) [C, Zileuton, reference compound] | specific | reduction in serum glucose relative to the respective vehicle control group (FIG. 2) ([4]; 30 mg/kg, p<0.01): reduction in serum glucose
